# Results published in patent US20160244452A1, “HETEROCYCLIC COMPOUNDS AND USES THEREOF” (INFINITY PHARMACEUTICALS, INC., priority 2014, published 2016).
# Assays:
# α PI3K = target: T1, α PI3K (Homo sapiens, UniProt P42336); assay: PI3-Kinase Promega ADP-Glo Max assay, α isoform; format: biochemical; details: 20 nM kinase, 3 mM ATP, 500 uM diC8-PtdInsP
# T1 construct: purchased Millipore
# Experimental: (§1) PI3-Kinase Promega™ Assay
# (§2) Promega ADP-Glo Max assay kit (Cat. No. V7002) was utilized to determine IC50 values for α, β, δ and γ isoforms of human Class I PI3 kinases (Millipore). Samples of kinase (20 nM α or δ, 40 nM β or γ isoform) were incubated with compound for 15 minutes at room temperature in reaction buffer (15 mM HEPES pH 7.4, 20 mM NaCl, 1 mM EGTA, 0.02% Tween 20, 10 mM MgCl2, 0.2 mg/mL bovine-γ-globulins) followed by addition of ATP/diC8-PtdInsP mixture to give final concentrations of 3 mM ATP and 500 uM diC8-PtdInsP. Reactions were incubated at room temperature for 2 hours followed by addition of 25 uL of stop solution. After a 40-minute incubation at room temperature, 50 uL of Promega detection mix was added followed by incubation for 1 hour at room temperature. Plates were then read on Envision plate reader in luminescence mode. Data was converted to % inhibition using the following equation below: […]
# (§3) where S is the sample luminescence, Pos is a positive control without added PI3K, Neg is the negative control without added compound. Data was then plotted as % inhibition vs compound concentration. Data fit to 4 parameter logistic equation to determine IC50 values: […]
# (§4) Certain compounds provided herein were tested in PI3-Kinase Promega Assay using procedures as described above to determine IC50 values for α, β, δ and/or γ isoforms.
# β PI3K = target: T2, β PI3K (Homo sapiens, UniProt P42338); assay: PI3-Kinase Promega ADP-Glo Max assay, β isoform; format: biochemical; details: 40 nM kinase, 3 mM ATP, 500 uM diC8-PtdInsP
# T2 construct: purchased Millipore
# T2 sequence (P42338 whole entry, canonical isoform): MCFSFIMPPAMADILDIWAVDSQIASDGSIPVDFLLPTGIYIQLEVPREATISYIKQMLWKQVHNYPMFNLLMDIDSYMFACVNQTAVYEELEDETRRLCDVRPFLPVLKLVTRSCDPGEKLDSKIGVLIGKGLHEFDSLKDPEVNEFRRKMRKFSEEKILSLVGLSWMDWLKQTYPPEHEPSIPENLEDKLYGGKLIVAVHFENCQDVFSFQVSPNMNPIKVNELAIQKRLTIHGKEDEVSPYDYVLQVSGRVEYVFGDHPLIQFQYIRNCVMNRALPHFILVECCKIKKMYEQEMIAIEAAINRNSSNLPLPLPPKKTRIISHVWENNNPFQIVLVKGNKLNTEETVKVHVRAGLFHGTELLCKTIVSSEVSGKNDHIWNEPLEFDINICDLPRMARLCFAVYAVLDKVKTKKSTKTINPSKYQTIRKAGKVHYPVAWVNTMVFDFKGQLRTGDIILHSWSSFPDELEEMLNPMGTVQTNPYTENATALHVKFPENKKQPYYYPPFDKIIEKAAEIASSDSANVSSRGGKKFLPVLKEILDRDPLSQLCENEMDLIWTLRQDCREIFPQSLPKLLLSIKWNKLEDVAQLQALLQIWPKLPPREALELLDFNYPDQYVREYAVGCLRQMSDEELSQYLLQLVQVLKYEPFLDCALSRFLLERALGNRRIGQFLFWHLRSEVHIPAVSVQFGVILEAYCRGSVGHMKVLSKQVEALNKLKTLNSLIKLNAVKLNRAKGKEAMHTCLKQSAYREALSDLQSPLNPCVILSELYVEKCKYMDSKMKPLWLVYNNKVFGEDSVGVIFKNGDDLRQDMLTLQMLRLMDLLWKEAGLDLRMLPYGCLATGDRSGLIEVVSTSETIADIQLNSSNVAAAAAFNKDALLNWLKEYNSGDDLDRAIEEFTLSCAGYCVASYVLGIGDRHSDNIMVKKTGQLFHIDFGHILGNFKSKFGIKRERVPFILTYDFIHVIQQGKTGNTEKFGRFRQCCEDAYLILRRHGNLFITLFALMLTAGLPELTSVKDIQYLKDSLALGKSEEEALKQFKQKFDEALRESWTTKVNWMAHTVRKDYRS
# T2 sequence (P27986 whole entry partner, canonical isoform): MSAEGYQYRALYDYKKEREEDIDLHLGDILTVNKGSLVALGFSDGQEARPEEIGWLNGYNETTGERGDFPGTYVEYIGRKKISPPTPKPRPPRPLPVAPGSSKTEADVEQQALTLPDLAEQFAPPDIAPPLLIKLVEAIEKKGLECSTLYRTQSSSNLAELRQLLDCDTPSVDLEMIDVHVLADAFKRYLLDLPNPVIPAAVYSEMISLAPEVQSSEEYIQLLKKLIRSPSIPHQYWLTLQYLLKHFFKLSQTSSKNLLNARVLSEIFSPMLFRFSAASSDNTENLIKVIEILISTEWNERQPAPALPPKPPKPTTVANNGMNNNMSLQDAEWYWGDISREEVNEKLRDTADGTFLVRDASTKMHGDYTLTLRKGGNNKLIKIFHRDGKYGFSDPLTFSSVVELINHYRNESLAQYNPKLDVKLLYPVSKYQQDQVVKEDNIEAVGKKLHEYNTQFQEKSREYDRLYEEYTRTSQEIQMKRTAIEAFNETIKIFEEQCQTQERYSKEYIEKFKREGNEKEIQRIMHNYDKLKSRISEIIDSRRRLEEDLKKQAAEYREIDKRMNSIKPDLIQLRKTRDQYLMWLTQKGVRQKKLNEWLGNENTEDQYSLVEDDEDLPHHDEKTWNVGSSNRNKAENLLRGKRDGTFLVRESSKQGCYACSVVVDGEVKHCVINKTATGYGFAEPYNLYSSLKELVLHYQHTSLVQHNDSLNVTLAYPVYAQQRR
# Experimental: as §1, §2, §3, §4
# δ PI3K = target: T3, δ PI3K (Homo sapiens, UniProt O00329); assay: PI3-Kinase Promega ADP-Glo Max assay, δ isoform; format: biochemical; details: 20 nM kinase, 3 mM ATP, 500 uM diC8-PtdInsP
# T3 construct: purchased Millipore
# Experimental: as §1, §2, §3, §4
# γ PI3K = target: T4, γ PI3K (Homo sapiens, UniProt P48736); assay: PI3-Kinase Promega ADP-Glo Max assay, γ isoform; format: biochemical; details: 40 nM kinase, 3 mM ATP, 500 uM diC8-PtdInsP
# T4 construct: purchased Millipore
# T4 sequence (P48736 whole entry, canonical isoform): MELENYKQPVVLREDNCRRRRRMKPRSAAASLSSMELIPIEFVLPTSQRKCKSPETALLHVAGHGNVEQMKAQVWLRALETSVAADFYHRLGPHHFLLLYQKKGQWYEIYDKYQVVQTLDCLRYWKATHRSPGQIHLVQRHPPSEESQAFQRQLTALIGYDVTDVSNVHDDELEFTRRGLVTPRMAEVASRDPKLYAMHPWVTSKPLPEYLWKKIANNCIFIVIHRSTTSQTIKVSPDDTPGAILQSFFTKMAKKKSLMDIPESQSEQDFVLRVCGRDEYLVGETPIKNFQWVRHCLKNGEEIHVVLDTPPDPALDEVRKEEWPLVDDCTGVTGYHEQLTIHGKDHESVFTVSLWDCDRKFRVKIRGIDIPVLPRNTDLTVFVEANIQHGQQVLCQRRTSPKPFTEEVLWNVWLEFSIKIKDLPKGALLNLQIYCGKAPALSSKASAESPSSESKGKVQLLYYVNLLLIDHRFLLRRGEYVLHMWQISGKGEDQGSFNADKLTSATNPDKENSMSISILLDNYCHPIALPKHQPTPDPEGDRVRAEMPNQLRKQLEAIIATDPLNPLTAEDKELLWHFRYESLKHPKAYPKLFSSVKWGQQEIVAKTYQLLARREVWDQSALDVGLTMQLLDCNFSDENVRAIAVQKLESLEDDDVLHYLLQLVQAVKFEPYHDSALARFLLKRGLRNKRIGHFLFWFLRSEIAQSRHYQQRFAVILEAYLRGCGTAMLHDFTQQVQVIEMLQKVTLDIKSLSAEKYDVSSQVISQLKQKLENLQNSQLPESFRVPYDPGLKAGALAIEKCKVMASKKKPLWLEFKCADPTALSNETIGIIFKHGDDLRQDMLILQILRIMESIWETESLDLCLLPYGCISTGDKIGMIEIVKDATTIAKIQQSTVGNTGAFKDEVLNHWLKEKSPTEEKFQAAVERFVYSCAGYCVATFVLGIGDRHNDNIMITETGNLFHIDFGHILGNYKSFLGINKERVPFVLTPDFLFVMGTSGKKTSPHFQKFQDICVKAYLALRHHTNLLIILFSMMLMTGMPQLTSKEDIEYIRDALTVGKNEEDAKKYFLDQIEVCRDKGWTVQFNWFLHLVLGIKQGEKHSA
# Experimental: as §1, §2, §3, §4
# p110 δ = target: T5, p110 δ (Homo sapiens, UniProt O00329); assay: PI3K-δ selective cellular assay: phospho-AKT in anti-human IgM stimulated RAJI cells; format: cell-based; details: serum-starved RAJI cells stimulated with anti-human IgM
# T5 construct: endogenous in cells; host or cells: RAJI cells
# Excerpt: (a) PI3K-δ Selective Assay
# A compound's ability in selectively inhibiting PI3K-δ can be assessed using RAJI cells, i.e., B lymphocyte cells derived from lymphoma patients. Briefly, serum-starved RAJI cells are stimulated with anti-human IgM, thereby causing signaling through the B-cell receptors, as described in, for example, He et al., Leukemia Research (2009) 33: 798-802. B-cell receptor signaling is important for the activation, differentiation, and survival of B cells and certain B-cell derived cancers. Reduction of phospho-AKT is indicative of compounds that can inhibit B-cell proliferation and function in certain diseases. By monitoring the reduction of phospho-AKT in stimulated RAJI cells (using for example, phospho-AKT antibodies), a compound's potential efficacy in selectively inhibiting PI3Kδ can be assessed.
# Certain compounds provided herein were tested in RAJI cell model using procedures as described above.
# p110 γ = target: T6, p110 γ (Mus musculus, UniProt Q9JHG7); assay: PI3K-γ selective cellular assay: phospho-AKT in C5a stimulated RAW264.7 macrophages; format: cell-based; details: serum-starved RAW264.7 cells stimulated with C5a
# T6 construct: endogenous in cells; host or cells: RAW264.7 macrophages
# T6 sequence (Q9JHG7 whole entry): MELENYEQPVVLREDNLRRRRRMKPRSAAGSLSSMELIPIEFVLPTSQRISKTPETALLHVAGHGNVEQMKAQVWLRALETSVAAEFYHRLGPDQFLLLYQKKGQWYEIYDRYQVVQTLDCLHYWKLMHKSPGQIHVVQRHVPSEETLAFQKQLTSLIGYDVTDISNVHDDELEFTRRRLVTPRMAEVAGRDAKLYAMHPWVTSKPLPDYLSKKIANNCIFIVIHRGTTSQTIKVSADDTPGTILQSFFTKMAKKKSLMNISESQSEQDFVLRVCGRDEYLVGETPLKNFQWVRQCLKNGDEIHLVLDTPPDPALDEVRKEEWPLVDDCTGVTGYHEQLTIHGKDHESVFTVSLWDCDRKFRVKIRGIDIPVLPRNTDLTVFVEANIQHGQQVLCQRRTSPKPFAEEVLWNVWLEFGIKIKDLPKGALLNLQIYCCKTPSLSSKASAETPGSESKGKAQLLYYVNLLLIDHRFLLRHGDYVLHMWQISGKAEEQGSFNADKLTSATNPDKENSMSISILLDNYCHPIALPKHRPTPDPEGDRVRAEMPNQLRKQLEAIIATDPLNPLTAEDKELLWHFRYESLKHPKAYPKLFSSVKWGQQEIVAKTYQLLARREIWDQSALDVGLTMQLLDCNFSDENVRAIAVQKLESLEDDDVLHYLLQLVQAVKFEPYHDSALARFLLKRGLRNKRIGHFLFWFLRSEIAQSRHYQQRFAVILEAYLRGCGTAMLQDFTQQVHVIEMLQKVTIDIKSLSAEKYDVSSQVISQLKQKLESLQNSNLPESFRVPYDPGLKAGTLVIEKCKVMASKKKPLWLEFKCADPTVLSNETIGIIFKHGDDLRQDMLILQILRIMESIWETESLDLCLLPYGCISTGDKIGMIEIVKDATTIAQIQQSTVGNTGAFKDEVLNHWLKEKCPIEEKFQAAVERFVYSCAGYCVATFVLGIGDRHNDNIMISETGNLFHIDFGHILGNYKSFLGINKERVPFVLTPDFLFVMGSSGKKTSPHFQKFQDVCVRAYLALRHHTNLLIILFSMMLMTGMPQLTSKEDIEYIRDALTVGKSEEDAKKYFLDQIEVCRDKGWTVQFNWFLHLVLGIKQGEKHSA
# Excerpt: (b) PI3K-γ Selective Assay
# A compound's ability in selectively inhibiting PI3K-γ can be assessed using RAW264.7 macrophages. Briefly, serum-starved RAW264.7 cells are stimulated with a known GPCR agonist C5a. See, e.g., Camps et al., Nature Medicine (2005) 11(9):936-943. Cells can be treated with test compounds prior to, simultaneously with, or subsequent to the stimulation by C5a. RAW 264.7 cells respond to the complement component fragment C5a through activation of the C5a receptor, and the C5a receptor activates macrophages and induces cell migration. Test compounds' ability to inhibit C5a-mediated AKT phosphorylation is indicative of selective inhibition of PI3K-γ. Thus, by monitoring the reduction of phospho-AKT in stimulated RAW 264.7 cells (using for example, phospho-AKT antibodies), a compound's potential efficacy in selectively inhibiting PI3Kγ can be assessed.
# Certain compounds provided herein were tested in RAW 264.7 cell model using procedures as described above.
# BTK or MEK pathway = assay: Effect on BTK or MEK pathway
# T1 sequence (P42336 whole entry, canonical isoform): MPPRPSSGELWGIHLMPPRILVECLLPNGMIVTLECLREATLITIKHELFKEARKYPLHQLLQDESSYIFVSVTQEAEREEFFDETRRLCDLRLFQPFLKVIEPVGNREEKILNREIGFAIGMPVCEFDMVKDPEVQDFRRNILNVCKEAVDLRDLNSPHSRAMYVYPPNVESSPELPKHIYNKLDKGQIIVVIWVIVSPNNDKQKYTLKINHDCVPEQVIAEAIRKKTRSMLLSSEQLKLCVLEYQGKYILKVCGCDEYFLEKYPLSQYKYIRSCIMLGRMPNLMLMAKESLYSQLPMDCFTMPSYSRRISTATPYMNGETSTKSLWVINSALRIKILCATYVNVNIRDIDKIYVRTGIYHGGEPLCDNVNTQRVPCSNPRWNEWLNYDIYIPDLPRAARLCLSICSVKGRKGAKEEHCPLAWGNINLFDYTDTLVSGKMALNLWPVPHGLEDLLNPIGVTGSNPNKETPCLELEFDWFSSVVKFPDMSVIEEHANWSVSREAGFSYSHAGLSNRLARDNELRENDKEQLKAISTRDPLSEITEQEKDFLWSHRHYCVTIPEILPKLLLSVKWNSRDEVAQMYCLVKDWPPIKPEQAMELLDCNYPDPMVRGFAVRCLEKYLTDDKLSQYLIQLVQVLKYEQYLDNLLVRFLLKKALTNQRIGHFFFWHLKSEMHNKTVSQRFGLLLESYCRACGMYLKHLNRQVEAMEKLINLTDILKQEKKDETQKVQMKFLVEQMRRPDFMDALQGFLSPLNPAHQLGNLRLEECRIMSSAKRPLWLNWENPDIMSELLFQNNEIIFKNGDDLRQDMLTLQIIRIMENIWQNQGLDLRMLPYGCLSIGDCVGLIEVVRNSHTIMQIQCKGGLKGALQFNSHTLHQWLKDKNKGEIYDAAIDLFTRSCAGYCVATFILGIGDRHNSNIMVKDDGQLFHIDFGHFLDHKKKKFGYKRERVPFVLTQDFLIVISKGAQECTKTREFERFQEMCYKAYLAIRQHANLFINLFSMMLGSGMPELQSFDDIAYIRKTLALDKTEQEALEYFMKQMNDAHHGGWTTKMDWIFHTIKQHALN
# T1 sequence (P27986 whole entry partner, canonical isoform): as the sequence (P27986 whole entry partner, canonical isoform) above
IC50 (α PI3K) [nM],IC50 (β PI3K) [nM],IC50 (δ PI3K) [nM],IC50 (γ PI3K) [nM],IC50 (p110 δ) [nM],IC50 (p110 γ) [nM],SMILES,Effect on BTK or MEK pathway (BTK or MEK pathway)
3500 to 10000,100 to 3500,10 to 100,100 to 3500,1 to 10,100 to 3500,CC[C@H](Nc1ncnc2[nH]cnc12)c1cc2cccc(F)c2c(=O)n1-c1ccccc1 [1 s],–
100 to 3500,100 to 3500,1 to 10,100 to 3500,1 to 10,10 to 100,C[C@H](Nc1ncnc2[nH]cnc12)c1cc2ccc(F)c(Cl)c2c(=O)n1-c1ccccc1 [96 s],–
–,–,–,–,–,–,CCC(Nc1ncnc2[nH]cnc12)c1cc2cccc(F)c2c(=O)n1-c1ccccc1 (stereo not shown) [Compound 1],does not affect BTK or MEK pathway
